Drawing on PubChem BioAssay (NCI), this text covers GI50 and TGI for 17 compounds.

Structures are written as SMILES. Values joined by “and” are separate entries in the source; they are usually repeats but may differ in a detail not shown here. Equal entries are not always repeated.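 Method: 48-hour compound exposure of cells in 96-well plates, five concentrations, linear interpolation of endpoints. Abbreviation: GI50, concentration required for 50% inhibition of growth. TGI denotes the concentration required for complete inhibition of growth.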 Some results are limits rather than exact numbers.

In one assay the test system is RPMI-8226 leukemia. In words: NCI anticancer screen, dose series, 48 h.
Take `COc1ccc(-c2cn(-c3cc(OC)c(OC)c(OC)c3)c(SCc3ccccc3)n2)cc1OC`: the GI50 is over 100 µM and the TGI is over 100 µM.
In the case of `COc1c(C)c2c(c(O)c1C/C=C(\C)CCC(=O)O)C(=O)OC2`, the GI50 was 0.518 µM and the TGI was over 100 µM.
As to `Cc1cc(O)c(C(C)C)cc1S(=O)(=O)O` (tested in a mixture with another compound), the GI50 is 0.357 µM.
Consider `COc1cc(C[C@H]2c3cc(OC)c(OC)cc3CCN2C)c(Oc2cc3c(cc2OC)-c2c(OC)c(OC)cc4c2[C@H](C3)N(C)CC4)cc1OC`, for which the GI50 is 3.22 µM; the TGI is 25.5 µM and 15.4 µM.
With `COC(=O)C1(C)CCC(c2ccc(C)cc2)=C(CC(=O)O)C1` (stereo not given), the TGI was over 100 µM.
As for `CCN(CC)CCCC(C)Nc1ccnc2cc(Oc3ccccc3)ccc12` (stereo not given), the GI50 is 5.02 µM and 5.36 µM; the TGI was 13.9 µM and 28.2 µM.
`C=C1CCC2C3(C)COC(c4ccc(N(C)C)cc4)OC3CCC2(C)C1C/C=C1/C(=O)OCC1O` (stereo not given): the GI50 is 1.23 µM and the TGI was 3.8 µM.
In turn, `COc1cc(OC(=O)c2ccccc2)cc2c1C(=O)C=CC2=O` registered a TGI of 29.7 µM.
With `CC/C=C1/C(=O)C=C[C@@H]1C/C=C\CCCC(=O)OC`, the GI50 was 0.699 µM and the TGI amounted to 5.54 µM.
On the same counts, the results for `CCN(CC)CCCCNc1c2ccccc2[n+](C)c2c1[nH]c1ccccc12` are 0.255 µM and 1.32 µM.
For `COc1ccc(C(=O)c2cc(OC)c(OC)c(OC)c2)cc1OC(=O)CCl`, the GI50 was under 0.021 µM and the TGI was found to be 12.9 µM.
On the same counts, the results for `CN[C@@H](C)C(=O)N[C@H](C(=O)N1CCC[C@H]1C(=O)Nc1snnc1-c1ccccc1)C1CCCCC1` are 43.9 µM and over 100 µM.
For `c1ccc2[nH]c(-c3ccc(-c4nccc5c4[nH]c4ccccc45)cc3)nc2c1`, the GI50 is 2.48 µM and the TGI is 5.61 µM.
Compound `O=C(O)CNC(=O)c1ccc(-c2ccccc2)cc1` registered a TGI of over 100 µM.
Consider `COc1cnc2c(c1)C(=O)c1c-2n(CCCn2ccnc2)c(=O)c2cc(F)ccc12`, for which the GI50 is under 0.01 µM and the TGI was 0.248 µM.
On to `COc1ccc2cc(C(=O)/C=C/c3ccc(Cl)cc3Cl)ccc2c1`, for which the GI50 was 6.81 µM and the TGI is over 100 µM.
Compound `CC(=O)OCC1OC(n2cnc(C(N)=S)c2N)C(OC(C)=O)C1OC(C)=O` (stereo not given) had a TGI of over 100 µM.

A further assay has as its system SN12C renal. In words: NCI anticancer screen, dose series, 48 h.
`COc1ccc(-c2cn(-c3cc(OC)c(OC)c(OC)c3)c(SCc3ccccc3)n2)cc1OC`: the GI50 is over 100 µM and the TGI is over 100 µM.
In the case of `COc1c(C)c2c(c(O)c1C/C=C(\C)CCC(=O)O)C(=O)OC2`, the GI50 was 0.499 µM and the TGI is over 100 µM.
In the case of `Cc1cc(O)c(C(C)C)cc1S(=O)(=O)O` (tested in a mixture with another compound), the GI50 was 0.448 µM.
For `COc1cc(C[C@H]2c3cc(OC)c(OC)cc3CCN2C)c(Oc2cc3c(cc2OC)-c2c(OC)c(OC)cc4c2[C@H](C3)N(C)CC4)cc1OC`, the GI50 is 16.6 µM; the TGI was 39.8 µM and 30.8 µM.
In the case of `COC(=O)C1(C)CCC(c2ccc(C)cc2)=C(CC(=O)O)C1` (stereo not given), the TGI was over 100 µM.
Turning to `CCN(CC)CCCC(C)Nc1ccnc2cc(Oc3ccccc3)ccc12` (stereo not given), the GI50 was 9.08 µM and 19.6 µM; the TGI is 39.5 µM and > 100 µM.
Consider `C=C1CCC2C3(C)COC(c4ccc(N(C)C)cc4)OC3CCC2(C)C1C/C=C1/C(=O)OCC1O` (stereo not given), for which the GI50 was 2.52 µM and the TGI is 7.98 µM.
The compound `COc1cc(OC(=O)c2ccccc2)cc2c1C(=O)C=CC2=O` displayed a TGI of 45 µM.
Turning to `CC/C=C1/C(=O)C=C[C@@H]1C/C=C\CCCC(=O)OC`, the GI50 is 3.08 µM and the TGI was found to be 8.58 µM.
Consider `CCN(CC)CCCCNc1c2ccccc2[n+](C)c2c1[nH]c1ccccc12`, for which the GI50 is 0.0699 µM and the TGI amounted to 6.08 µM.
On the same counts, the results for `COc1ccc(C(=O)c2cc(OC)c(OC)c(OC)c2)cc1OC(=O)CCl` are 0.0472 µM and over 100 µM.
On the same counts, the results for `CN[C@@H](C)C(=O)N[C@H](C(=O)N1CCC[C@H]1C(=O)Nc1snnc1-c1ccccc1)C1CCCCC1` are 74.9 µM and over 100 µM.
In turn, `O=C(O)CNC(=O)c1ccc(-c2ccccc2)cc1` gave a TGI of over 100 µM.
`COc1cnc2c(c1)C(=O)c1c-2n(CCCn2ccnc2)c(=O)c2cc(F)ccc12`: the GI50 was under 0.01 µM and the TGI was over 100 µM.
With `COc1ccc2cc(C(=O)/C=C/c3ccc(Cl)cc3Cl)ccc2c1`, the GI50 is 25.9 µM and the TGI is 67.9 µM.
On to `CC(=O)OCC1OC(n2cnc(C(N)=S)c2N)C(OC(C)=O)C1OC(C)=O` (stereo not given), for which the TGI was over 100 µM.

The test system of another assay is SR leukemia. In words: NCI anticancer screen, dose series, 48 h.
As for `COc1ccc(-c2cn(-c3cc(OC)c(OC)c(OC)c3)c(SCc3ccccc3)n2)cc1OC`, the GI50 was 97.8 µM and the TGI is over 100 µM.
On to `COc1c(C)c2c(c(O)c1C/C=C(\C)CCC(=O)O)C(=O)OC2`, for which the GI50 was 0.158 µM and the TGI was over 100 µM.
For the compound `Cc1cc(O)c(C(C)C)cc1S(=O)(=O)O` (tested in a mixture with another compound), the GI50 is 0.16 µM.
Take `COc1cc(C[C@H]2c3cc(OC)c(OC)cc3CCN2C)c(Oc2cc3c(cc2OC)-c2c(OC)c(OC)cc4c2[C@H](C3)N(C)CC4)cc1OC`: the GI50 was 2.44 µM; the TGI was 28.6 µM and 7.84 µM.
On to `COC(=O)C1(C)CCC(c2ccc(C)cc2)=C(CC(=O)O)C1` (stereo not given), for which the TGI is over 100 µM.
`CCN(CC)CCCC(C)Nc1ccnc2cc(Oc3ccccc3)ccc12` (stereo not given): the GI50 is 2.6 µM and 2.27 µM; the TGI is 12.9 µM and 6.66 µM.
With `C=C1CCC2C3(C)COC(c4ccc(N(C)C)cc4)OC3CCC2(C)C1C/C=C1/C(=O)OCC1O` (stereo not given), the GI50 is 1.15 µM and the TGI stood at 3.77 µM.
As for `COc1cc(OC(=O)c2ccccc2)cc2c1C(=O)C=CC2=O`, the TGI is 5.03 µM.
On to `CC/C=C1/C(=O)C=C[C@@H]1C/C=C\CCCC(=O)OC`, for which the GI50 is 0.563 µM.
